Reference: patent publication US12637471B2, “Heterocyclic compounds, compositions, methods of preparation and uses thereof” (Organon R&D Finland Ltd, priority 2021, dated 2026)

Experiments:
Format in all cases: biochemical
[1] = target: T1, Recombinant human aldo-keto reductase family 1 member C2 (AKR1C2) protein (Homo sapiens, UniProt P52895); test: Inhibition of the aldo-keto reductase family 1 member C2, 3H-dihydrotestosterone conversion; conditions: inhibitor at 10 μM
T1 construct: made in house; host or cells: Sf-9 insect cells (baculovirus)
T1 sequence (P52895 1-323): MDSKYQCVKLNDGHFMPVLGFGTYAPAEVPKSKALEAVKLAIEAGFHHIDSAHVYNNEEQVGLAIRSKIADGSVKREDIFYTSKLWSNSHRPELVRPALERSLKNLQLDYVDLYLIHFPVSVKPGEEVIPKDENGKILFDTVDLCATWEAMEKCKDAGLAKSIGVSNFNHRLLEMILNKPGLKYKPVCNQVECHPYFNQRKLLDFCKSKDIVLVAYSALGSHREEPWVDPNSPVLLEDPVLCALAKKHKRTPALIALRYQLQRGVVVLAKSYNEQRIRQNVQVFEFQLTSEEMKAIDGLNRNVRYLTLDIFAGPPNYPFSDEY
Outline: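 Single-point screen at 10 μM inhibitor, 1% DMSO: [3H]DHT (6.25 nM) reduction to 3α-diol by baculovirus-made AKR1C2 (13.6 nM), pH 7.4 phosphate buffer, 1 mM NADPH, 37 °C for 45 min. Radio-UPLC quantified product versus substrate to give percent inhibition.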

[2] = target: T2, Recombinant human AKR1C3 (17β-HSD5) protein (Homo sapiens, UniProt P42330); test: Inhibition of AKR1C3 (17β-hydroxysteroid dehydrogenase type 5) enzyme, fluorescence assay; conditions: inhibitor at 500 nM
T2 construct: made in house; host or cells: E. coli
T2 sequence (P42330 1-323): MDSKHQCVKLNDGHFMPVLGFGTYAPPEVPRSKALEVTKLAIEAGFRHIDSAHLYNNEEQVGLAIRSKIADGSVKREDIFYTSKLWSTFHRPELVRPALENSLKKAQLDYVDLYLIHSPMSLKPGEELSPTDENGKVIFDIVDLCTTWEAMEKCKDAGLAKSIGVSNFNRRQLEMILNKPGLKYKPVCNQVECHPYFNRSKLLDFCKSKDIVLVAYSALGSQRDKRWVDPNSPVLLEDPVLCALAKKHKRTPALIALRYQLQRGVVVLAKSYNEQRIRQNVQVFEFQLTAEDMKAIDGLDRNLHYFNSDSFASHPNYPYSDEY
Outline: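 Percent inhibition at 500 nM compound, derived from substrate conversion; product alcohol measured by fluorescence (ex 420, em 510 nm) against a 1 μM–10 nM standard curve. Reaction: 27 nM recombinant AKR1C3, 1 μM ketone substrate, 1 mM NADPH, phosphate/EDTA buffer pH 7.4, 1% DMSO, RT for 60–120 min.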

[3] = target: T3, 17β-Hydroxysteroid Dehydrogenase Type 2 Enzyme (17β-HSD2) (Homo sapiens, UniProt P37059); test: Inhibition of the 17β-hydroxysteroid dehydrogenase type 2 enzyme, 3H-testosterone conversion; conditions: inhibitor at 10 μM
T3 construct: made in house; host or cells: Sf-9 insect cells (baculovirus)
T3 sequence (P37059 1-387): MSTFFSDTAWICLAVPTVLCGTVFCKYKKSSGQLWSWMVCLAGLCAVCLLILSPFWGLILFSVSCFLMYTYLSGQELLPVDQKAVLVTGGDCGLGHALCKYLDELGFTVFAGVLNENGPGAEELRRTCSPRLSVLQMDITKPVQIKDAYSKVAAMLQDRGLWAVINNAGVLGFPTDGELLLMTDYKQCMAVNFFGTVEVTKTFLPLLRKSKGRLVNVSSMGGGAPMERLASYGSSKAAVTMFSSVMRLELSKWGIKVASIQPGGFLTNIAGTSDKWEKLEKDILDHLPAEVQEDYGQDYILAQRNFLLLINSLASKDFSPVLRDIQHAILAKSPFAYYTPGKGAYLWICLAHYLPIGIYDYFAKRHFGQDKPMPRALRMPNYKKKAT
Outline: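 Single-point screen at 10 μM inhibitor, 1% DMSO: Sf-9-expressed human enzyme (105 nM), NAD 1 mM, ³H-labelled testosterone 56.25 nM, pH 8.5 phosphate/EDTA buffer, 30 min, room temperature. After TCA quench, substrate and product radioactivity quantified by UPLC with scintillation detection; inhibition percent from conversion.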

| SMILES | inhibition at 10 µM [1] [%] | inhibition at 0.5 µM [2] [%] | inhibition at 10 µM [3] [%] |
| --- | --- | --- | --- |
| N#CC(=C1CCN(C(=O)N2CCC(S(N)(=O)=O)CC2)CC1)c1ccc(C(F)(F)F)cc1 [Compound 148, 1-(4-(cyano(4-(trifluoromethyl)phenyl)methylene)piperidine-1-carbonyl)piperidine-4-sulfonamide] | 6 | 90 | 7 |
| N#CC(=C1CCN(C(=O)N2CCc3nocc3C2)CC1)c1ccc(Cl)s1 [Compound 160, 2-(5-chlorothiophen-2-yl)-2-(1-(4,5,6,7-tetrahydroisoxazolo[4,3-c]pyridine-5-carbonyl)piperidin-4-ylidene)acetonitrile] | 34 | 99 | 18 |
| N#CC(=C1CCN(C(=O)N2CCc3nocc3C2)CC1)c1ccc(OC(F)(F)F)cc1 [Compound 159, 2-(1-(4,5,6,7-tetrahydroisoxazolo[4,3-c]pyridine-5-carbonyl)piperidin-4-ylidene)-2-(4-(trifluoromethoxy)phenyl)acetonitrile] | 14 | 100 | 1 |
| N#CC(=C1CCN(C(=O)N2CCC(S(N)(=O)=O)CC2)CC1)c1cccc(Cl)c1 [Compound 99, 1-(4-((3-chlorophenyl)(cyano)methylene)piperidine-1-carbonyl)piperidine-4-sulfonamide] | 16 | 96 | 18 |
| COC1CN(C(=O)N2CCC(=C(C#N)c3ccc(F)cc3)CC2)C1 [Compound 22, 2-(4-fluorophenyl)-2-(1-(3-methoxyazetidine-1-carbonyl)piperidin-4-ylidene)acetonitrile] | 9 | 88 | 7 |
| CCN(CC)C(=O)N1CCC(=C(C#N)c2ccc(Cl)cc2)CC1 [Compound 105, 4-((4-chlorophenyl)(cyano)methylene)-N,N-diethylpiperidine-1-carboxamide] | 10 | 100 | 15 |
| COC1CCN(C(=O)N2CCC(=C(C#N)c3ccc(Cl)cn3)CC2)CC1 [Compound 81, 2-(5-chloropyridin-2-yl)-2-(1-(4-methoxypiperidine-1-carbonyl)piperidin-4-ylidene)acetonitrile] | -7 | 95 | 10 |
| COCC1CCN(C(=O)N2CCC(=C(C#N)c3ccc(F)cc3F)CC2)CC1 [Compound 73, 2-(2,4-difluorophenyl)-2-(1-(4-(methoxymethyl)piperidine-1-carbonyl)piperidin-4-ylidene)acetonitrile] | 19 | 92 | 21 |
| N#CC(=C1CCN(C(=O)N2CCn3nncc3C2)CC1)c1ccc(OC(F)(F)F)cc1 [Compound 162, 2-(1-(4,5,6,7-tetrahydro-[1,2,3]triazolo[1,5-a]pyrazine-5-carbonyl)piperidin-4-ylidene)-2-(4-(trifluoromethoxy)phenyl)acetonitrile] | 17 | 98 | 1 |
| N#CC(=C1CCN(C(=O)N2CCn3cncc3C2)CC1)c1ccc(OC(F)(F)F)cc1 [Compound 55, 2-(1-(5,6,7,8-tetrahydroimidazo[1,5-a]pyrazine-7-carbonyl)piperidin-4-ylidene)-2-(4-(trifluoromethoxy)phenyl)acetonitrile] | 3 | 97 | 7 |
| N#CC(=C1CCN(C(=O)N2CCc3[nH]ncc3C2)CC1)c1ccc(OC(F)(F)F)cc1 [Compound 54, 2-(1-(4,5,6,7-tetrahydro-1H-pyrazolo[4,3-c]pyridine-5-carbonyl)piperidin-4-ylidene)-2-(4-(trifluoromethoxy)phenyl)acetonitrile] | 15 | 99 | 20 |
| N#CC(=C1CCN(C(=O)N2CCC(CO)CC2)CC1)c1ccc(F)cc1F [Compound 39, 2-(2,4-difluorophenyl)-2-(1-(4-(hydroxymethyl)piperidine-1-carbonyl)piperidin-4-ylidene)acetonitrile] | 13 | 96 | 6 |
| N#CC(=C1CCN(C(=O)N2CCn3ncnc3C2)CC1)c1ccc(Cl)cn1 [Compound 165, 2-(5-chloropyridin-2-yl)-2-(1-(5,6,7,8-tetrahydro-[1,2,4]triazolo[1,5-a]pyrazine-7-carbonyl)piperidin-4-ylidene)acetonitrile] | 9 | 95 | 6 |
| N#CC(=C1CCN(C(=O)N2CCC(C(F)(F)F)CC2)CC1)c1ccc(Cl)cc1 [Compound 90, 2-(4-chlorophenyl)-2-(1-(4-(trifluoromethyl)piperidine-1-carbonyl)piperidin-4-ylidene)acetonitrile] | 9 | 99 | 30 |
| COC1CCN(C(=O)N2CCC(=C(C#N)c3ccc(F)cc3F)CC2)CC1 [Compound 91, 2-(2,4-difluorophenyl)-2-(1-(4-methoxypiperidine-1-carbonyl)piperidin-4-ylidene)acetonitrile] | 23 | 99 | 23 |
| N#CC(=C1CCN(C(=O)N2CCC(O)CC2)CC1)c1ccc(Cl)cn1 [Compound 62, 2-(5-chloropyridin-2-yl)-2-(1-(4-hydroxypiperidine-1-carbonyl)piperidin-4-ylidene)acetonitrile] | -4 | 90 | 4 |
| N#CC(=C1CCN(C(=O)N2CCOCC2)CC1)c1cccc2[nH]ncc12 [Compound 45, 2-(1H-indazol-4-yl)-2-(1-(morpholine-4-carbonyl)piperidin-4-ylidene)acetonitrile] | 5 | 103 | 2 |
| CC(O)C1CCN(C(=O)N2CCC(=C(C#N)c3ccc(F)cc3)CC2)CC1 (stereo not drawn) [Compound 21, 2-(4-fluorophenyl)-2-(1-(4-(1-hydroxyethyl)piperidine-1-carbonyl)piperidin-4-ylidene)acetonitrile] | 9 | 95 | 20 |
| N#CC(=C1CCN(C(=O)N2C[C@@H]3CC[C@@H]2C3)CC1)c1ccc(F)cc1 [Compound 29, 2-(1-((1R,4R)-2-azabicyclo[2.2.1]heptane-2-carbonyl)piperidin-4-ylidene)-2-(4-fluorophenyl)acetonitrile] | 5 | 96 | 30 |
| COC[C@@H]1CCCN1C(=O)N1CCC(=C(C#N)c2ccc(F)cc2)CC1 [Compound 8, (S)-2-(4-fluorophenyl)-2-(1-(2-(methoxymethyl)pyrrolidine-1-carbonyl)piperidin-4-ylidene)acetonitrile] | 7 | 98 | 8 |
| N#CC(=C1CCN(C(=O)N2CCC(CO)CC2)CC1)c1cccc2[nH]ncc12 [Compound 49, 2-(1-(4-(hydroxymethyl)piperidine-1-carbonyl)piperidin-4-ylidene)-2-(1H-indazol-4-yl)acetonitrile] | 6 | 98 | 22 |
